Assay results from patent US8008291B2 (Mimetica Pty Ltd, priority 2008, dated 2011).
pIC50: −log10 of the molar value.

Each molecule was assayed against T1, human MC5R (hMC5R) (Homo sapiens, UniProt P33032) (assay: Human MC5R radioligand binding assay (membranes, [125I] NDP-MSH displacement)). Conditions: hMC5R binding; tested as trifluoroacetate or hydrochloride salts, or free bases; read-out: MC5R radioligand IC50.
T1 construct: purchased Perkin Elmer RBXMC5M400UA
Protocol: Assessments of compound binding to human MC5R (hMC5R) ) by displacement of an ^125I-labeled NDP-MSH receptor ligand peptide were performed essentially as described in the data sheets produced by Perkin Elmer to accompany their frozen hMC5R membranes (Perkin Elmer catalog number RBXMC5M400UA).
[^125I] NDP-MSH: radiolabeled in house and purified by HPLC:
• Na^125I (0.5 mCi, 17.4 Ci/mg) was added to 50 μL sodium phosphate (50 mM, pH7.4) in an eppendorf tube precoated with IODOGEN. After incubation for 10 mins the phosphate buffer containing the iodine was added to NDP-MSH (10 ul at 1 mg/mL) in a separate eppendorf tube. This was incubated for a further 10 mins. The iodinated NDP-MSH was purified by HPLC on a Zorbax SB 300 column using solvent A: 0.05% TFA and solvent B: 90% acetonitrile 0.045% TFA with a linear gradient, 0-67% B over 60 mins. […] Resuspended membranes were kept on ice until they were added to the wells of the plate. Binding Protocol for 400 microassays per vial: • Assays were performed in 96 well polypropylene plates. […] This was incubated for 1 hr at 37° C.

T1 sequence (P33032 whole entry): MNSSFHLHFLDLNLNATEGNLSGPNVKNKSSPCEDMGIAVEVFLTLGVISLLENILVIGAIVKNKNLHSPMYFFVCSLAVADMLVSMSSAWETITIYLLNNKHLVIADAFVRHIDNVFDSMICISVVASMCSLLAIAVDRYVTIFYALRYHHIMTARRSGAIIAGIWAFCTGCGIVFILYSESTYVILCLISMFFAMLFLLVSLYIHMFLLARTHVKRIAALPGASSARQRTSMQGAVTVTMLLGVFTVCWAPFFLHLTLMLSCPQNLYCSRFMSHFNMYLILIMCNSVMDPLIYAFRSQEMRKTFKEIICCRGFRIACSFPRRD

| SMILES | pIC50 |
| --- | --- |
| N=C(N)NCCC[C@@H]1N[C@H](CNC(=O)c2ccc3ccccc3c2)CCN(c2ccc3ccccc3c2)C1=O [Compound 226, N-(((3S,5S)-3-(3-guanidinopropyl)-1-(naphthalen-2-yl)-2-oxo-1,4-diazepan-5-yl)methyl)-2-naphthamide] | > 5.00 |
| CC[C@H](CN1CC[C@@H](CNC(=O)c2ccc3ccccc3c2)N[C@@H](CCCN)C1=O)c1ccccc1 [Compound 385, N-(((3S,5S)-3-(3-aminopropyl)-2-oxo-1-((S)-2-phenylbutyl)-1,4-diazepan-5-yl)methyl)-2-naphthamide] | > 6.00 |
| CC[C@H](CN1CC[C@@H](CNC(=O)c2ccc3ccccc3c2)N[C@@H](CCN)C1=O)c1ccccc1 [Compound 389, N-(((3S,5S)-3-(2-aminoethyl)-2-oxo-1-((S)-2-phenylbutyl)-1,4-diazepan-5-yl)methyl)-2-naphthamide] | > 6.00 |
| CC(=O)N[C@@H](Cc1c[nH]cn1)C(=O)N[C@H](Cc1ccc2ccccc2c1)[C@@H]1CCN(CC(c2ccccc2)c2ccccc2)C(=O)[C@H](CCCNC(=N)N)N1 [Compound 86, (S)-2-acetamido-N—((R)-1-((3S,5S)-1-(2,2-diphenylethyl)-3-(3-guanidinopropyl)-2-oxo-1,4-diazepan-5-yl)-2-(naphthalen-2-yl)ethyl)-3-(1H-imidazol-4-yl)propanamide] | > 6.00 |
| N=C(N)NCCC[C@@H]1N[C@H](CNC(=O)c2ccc3ccccc3c2)CCN(Cc2ccccc2)C1=O [Compound 249, N-(((3S,5S)-1-benzyl-3-(3-guanidinopropyl)-2-oxo-1,4-diazepan-5-yl)methyl)-2-naphthamide] | > 5.00 |
| O=C(C=Cc1ccccc1)NC[C@@H]1CCN(CC(c2ccccc2)c2ccccc2)C(=O)[C@H](CCCN2CCCCC2)N1 [Compound 266, N-(((3S,5S)-1-(2,2-diphenylethyl)-2-oxo-3-(3-(piperidin-1-yl)propyl)-1,4-diazepan-5-yl)methyl)cinnamamide] | > 7.00 |
| NCCC[C@@H]1N[C@H](CNC(=O)c2cc3ccccc3[nH]2)CCN(CC(c2ccccc2)c2ccccc2)C1=O [Compound 107, N-(((3S,5S)-3-(3-aminopropyl)-1-(2,2-diphenylethyl)-2-oxo-1,4-diazepan-5-yl)methyl)-1H-indole-2-carboxamide] | > 6.00 |
| NCC[C@@H]1N[C@H](CCNC(=O)c2ccc3ccccc3c2)CCN(CC(c2ccccc2)c2ccccc2)C1=O [Compound 303, N-(2-((3S,5R)-1-(2,2-diphenylethyl)-2-oxo-3-(2-aminoethyl)-1,4-diazepan-5-yl)ethyl)-2-naphthamide] | > 6.00 |
| NCCCC[C@@H]1N[C@H](CNC(=O)[C@@H]2Cc3ccccc3CN2)CCN(CC(c2ccccc2)c2ccccc2)C1=O [Compound 127, (S)—N-(((3S,5S)-3-(4-aminobutyl)-1-(2,2-diphenylethyl)-2-oxo-1,4-diazepan-5-yl)methyl)-1,2,3,4-tetrahydroisoquinoline-3-carboxamide] | > 5.00 |
| N=C(N)NCCC[C@@H]1N[C@H](CNC(=O)c2ccc3ccccc3c2)CCN(Cc2cc(F)cc(Cl)c2)C1=O [Compound 310, N-(((3S,5S)-1-(3-chloro-5-fluorobenzyl)-3-(3-guanidinopropyl)-2-oxo-1,4-diazepan-5-yl)methyl)-2-naphthamide] | > 6.00 |
| N=C(N)NCCC[C@@H]1N[C@H](CNC(=O)c2ccc3ccccc3c2)CCN(CC23CC4CC(CC(C4)C2)C3)C1=O [Compound 202, N-(((3S,5S)-1-(1-adamantylmethyl)-3-(3-guanidinopropyl)-2-oxo-1,4-diazepan-5-yl)methyl)-2-naphthamide] | > 6.00 |
| CCC(CN1CC[C@@H](CNC(=O)/C=C/c2ccc(Cl)cc2)N[C@@H](CCN)C1=O)c1ccccc1 (stereo partly drawn) [Compound 353, (E)-N-(((3S,5S)-3-(2-aminoethyl)-2-oxo-1-(2-phenylbutyl)-1,4-diazepan-5-yl)methyl)-3-(4-chlorophenyl)acrylamide] | > 7.00 |
| N=C(N)NCCC[C@@H]1N[C@H](CNC(=O)c2ccc3ccccc3c2)CCN(CC(C(=O)Nc2ccccc2)c2ccccc2)C1=O (stereo partly drawn) [Compound 344, N-(((3S,5S)-3-(3-guanidinopropyl)-2-oxo-1-(3-oxo-2-phenyl-3-(phenylamino)propyl)-1,4-diazepan-5-yl)methyl)-2-naphthamide] | > 5.00 |
| N=C(N)NCCC[C@@H]1N[C@H](CNC(=O)c2ccc3ccccc3c2)CCN(C[C@@H](NC(=O)c2ccccc2)c2ccccc2)C1=O [Compound 287, N-(((3S,5S)-1-((S)-2-benzamido-2-phenylethyl)-3-(3-guanidinopropyl)-2-oxo-1,4-diazepan-5-yl)methyl)-2-naphthamide] | > 6.00 |

Results, then the molecule that gave them:

| pIC50 | SMILES |
| --- | --- |
| > 7.00 | CC[C@H](CN1CC[C@@H](CNC(=O)c2ccc(-c3ccccc3)cc2)N[C@@H](CCN2CCCCC2)C1=O)c1ccccc1 [Compound 495, N-(((3S,5S)-2-oxo-1-((S)-2-phenylbutyl)-3-(2-(piperidin-1-yl)ethyl)-1,4-diazepan-5-yl)methyl)biphenyl-4-carboxamide] |
| > 7.00 | O=C(/C=C/c1ccc(OC(F)(F)F)c(F)c1)NC[C@@H]1CCN(Cc2cc(Cl)cc(Cl)c2)C(=O)[C@H](CCN2CCCCC2)N1 [Compound 536, (E)-N-(((3S,5S)-1-(3,5-dichlorobenzyl)-2-oxo-3-(2-(piperidin-1-yl)ethyl)-1,4-diazepan-5-yl)methyl)-3-(3-fluoro-4-(trifluoromethoxy)phenyl)acrylamide] |
| > 7.00 | CC[C@H](CN1CC[C@@H](CNC(=O)c2ccc3cc(Cl)ccc3c2)N[C@@H](CNC(C)C)C1=O)c1ccccc1 [Compound 499, 6-chloro-N-(((3S,5S)-3-((isopropylamino)methyl)-2-oxo-1-((S)-2-phenylbutyl)-1,4-diazepan-5-yl)methyl)-2-naphthamide] |
| > 7.00 | CC[C@H](CN1CC[C@@H](CNC(=O)c2ccc3cc(Cl)ccc3c2)N[C@@H](CN2CCCCC2)C1=O)c1ccccc1 [Compound 415, 6-chloro-N-(((3S,5S)-2-oxo-1-((S)-2-phenylbutyl)-3-(piperidin-1-ylmethyl)-1,4-diazepan-5-yl)methyl)-2-naphthamide] |
| > 7.00 | O=C(CCc1ccc(Cl)cc1)NC[C@@H]1CCN(CC(c2ccccc2)c2ccccc2)C(=O)[C@H](CCN2CCCCC2)N1 [Compound 391, 3-(4-chlorophenyl)-N-(((3S,5S)-1-(2,2-diphenylethyl)-2-oxo-3-(2-(piperidin-1-yl)ethyl)-1,4-diazepan-5-yl)methyl)propanamide] |
| > 5.00 | NCC[C@@H]1N[C@H](CNC(=O)c2cccc(C(F)(F)F)c2)CCN(CC(c2ccccc2)c2ccccc2)C1=O [Compound 437, N-(((3S,5S)-3-(2-aminoethyl)-1-(2,2-diphenylethyl)-2-oxo-1,4-diazepan-5-yl)methyl)-3-(trifluoromethyl)benzamide] |
| > 6.00 | NCC[C@@H]1N[C@H](CNC(=O)/C=C/c2ccc(F)cc2F)CCN(CC(c2ccccc2)c2ccccc2)C1=O [Compound 401, (E)-N-(((3S,5S)-3-(2-aminoethyl)-1-(2,2-diphenylethyl)-2-oxo-1,4-diazepan-5-yl)methyl)-3-(2,4-difluorophenyl)acrylamide] |
| > 7.00 | CC[C@H](CN1CC[C@@H](CNC(=O)c2ccc3cc(Cl)ccc3c2)N[C@@H](CCN)C1=O)c1ccccc1 [Compound 441, N-(((3S,5S)-3-(2-aminoethyl)-2-oxo-1-((S)-2-phenylbutyl)-1,4-diazepan-5-yl)methyl)-6-chloro-2-naphthamide] |
| > 8.00 | CC[C@H](CN1CC[C@@H](CNC(=O)/C=C/c2ccc(OC(F)(F)F)c(F)c2)N[C@@H](CCN2CCCCC2)C1=O)c1ccccc1 [Compound 539, (E)-3-(3-fluoro-4-(trifluoromethoxy)phenyl)-N-(((3S,5S)-2-oxo-1-((S)-2-phenylbutyl)-3-(2-(piperidin-1-yl)ethyl)-1,4-diazepan-5-yl)methyl)acrylamide] |
| > 7.00 | O=C(NC[C@@H]1CCN(Cc2cc(Cl)cc(Cl)c2)C(=O)[C@H](CCN2CCCCC2)N1)c1cc(-c2ccc(Cl)cc2)on1 [Compound 527, 5-(4-chlorophenyl)-N-(((3S,5S)-1-(3,5-dichlorobenzyl)-2-oxo-3-(2-(piperidin-1-yl)ethyl)-1,4-diazepan-5-yl)methyl)isoxazole-3-carboxamide] |
| > 7.00 | CC[C@H](CN1CC[C@@H](CNC(=O)c2ccc3cc(Cl)ccc3c2)N[C@@H](CCNS(=O)(=O)C(C)C)C1=O)c1ccccc1 [Compound 523, 6-chloro-N-(((3S,5S)-3-(2-(1-methylethylsulfonamido)ethyl)-2-oxo-1-((S)-2-phenylbutyl)-1,4-diazepan-5-yl)methyl)-2-naphthamide] |
| > 5.00 | CC[C@H](CN1CC[C@@H](CN(Cc2ccc(Cl)c(Cl)c2)C(C)=O)N[C@@H](CCN2CCCCC2)C1=O)c1ccccc1 [Compound 519] |
| > 6.00 | CCC(C)(CC)CN1CC[C@@H](CNC(=O)c2ccc3cc(Cl)ccc3c2)N[C@@H](CCN)C1=O [Compound 512, N-(((3S,5S)-3-(2-aminoethyl)-1-(2-ethyl-2-methylbutyl)-2-oxo-1,4-diazepan-5-yl)methyl)-6-chloro-2-naphthamide] |
| > 7.00 | CC[C@H](CN1CC[C@@H](CNC(=O)c2ccc(Cl)c(Cl)c2)N[C@@H](CCN2CCNCC2)C1=O)c1ccccc1 [Compound 443, 3,4-dichloro-N-(((3S,5S)-2-oxo-1-((S)-2-phenylbutyl)-3-(2-(piperazin-1-yl)ethyl)-1,4-diazepan-5-yl)methyl)benzamide] |
